How the values were obtained:
Assay in all cases: NCI-60 anticancer screen (SRB; single dose and five doses)
Details in all cases: Homo sapiens
[1] = tested on: COLO 205
[2] = tested on: HCT-15
[3] = tested on: LOX IMVI
[4] = tested on: SF-268
[5] = tested on: MALME-3M
[6] = tested on: BT-549
[7] = tested on: SR
[8] = tested on: RXF 393
[9] = tested on: A549/ATCC
[10] = tested on: NCI/ADR-RES
[11] = tested on: HOP-92
[12] = tested on: CAKI-1
[13] = tested on: HS 578T
[14] = tested on: PC-3
[15] = 48 h, read-out: Growth Percentage

Compound: Cc1[nH]c(=S)sc1C(=O)/C=C/c1cccc([N+](=O)[O-])c1 [2h, (E)-1-(4-Methyl-2-Thioxo-2,3-Dihydrothiazol-5-yl)-3-(3-Nitrophenyl)Prop-2-En-1-One]
- GI50 ([1]; COLO 205): 5.75 µM
- IC50 ([1]; COLO 205): 8.71 µM
- activity at 10 µM ([1]; COLO 205, 48 h, read-out: Growth Percentage): -24.9%
- CC50 ([1]; COLO 205, read-out: LC50): 51.3 µM
- IC (TGI) ([1]; COLO 205, read-out: TGI): 19.1 µM
- GI50 ([2]; HCT-15): 2.14 µM
- IC50 ([2]; HCT-15): 3.47 µM
- activity at 10 µM ([2]; HCT-15, 48 h, read-out: Growth Percentage): -36.4%
- CC50 ([2]; HCT-15, read-out: LC50): 31.6 µM
- IC (TGI) ([2]; HCT-15, read-out: TGI): 7.76 µM
- GI50 [3]: 1.58 µM
- IC50 [3]: 2.75 µM
- activity at 10 µM [3, 15]: -99%
- CC50 ([3]; read-out: LC50): 6.03 µM
- IC (TGI) ([3]; read-out: TGI): 3.09 µM
- GI50 ([4]; SF-268): 10.5 µM
- IC50 ([4]; SF-268): 19.1 µM
- activity at 10 µM ([4]; SF-268, 48 h, read-out: Growth Percentage): 27.5%
- CC50 ([4]; SF-268, read-out: LC50): 57.5 µM
- IC (TGI) ([4]; SF-268, read-out: TGI): 24.6 µM
- GI50 [5]: 12.3 µM
- IC50 [5]: 24.6 µM
- activity at 10 µM [5, 15]: -42.9%
- CC50 ([5]; read-out: LC50): 55 µM
- IC (TGI) ([5]; read-out: TGI): 26.3 µM
- GI50 ([6]; BT-549): 3.8 µM
- IC50 ([6]; BT-549): 13.5 µM
- activity at 10 µM ([6]; BT-549, 48 h, read-out: Growth Percentage): -14%
- CC50 ([6]; BT-549, read-out: LC50): 43.6 µM
- IC (TGI) ([6]; BT-549, read-out: TGI): 14.8 µM
- GI50 [7]: 2.75 µM
- IC50 [7]: 3.89 µM
- activity at 10 µM [7, 15]: -11%
- CC50 ([7]; read-out: LC50): > 100 µM
- IC (TGI) ([7]; read-out: TGI): > 100 µM
- GI50 ([8]; RXF 393): 10.2 µM
- IC50 ([8]; RXF 393): 24.6 µM
- activity at 10 µM ([8]; RXF 393, 48 h, read-out: Growth Percentage): -91.9%
- CC50 ([8]; RXF 393, read-out: LC50): 47.9 µM
- IC (TGI) ([8]; RXF 393, read-out: TGI): 22.4 µM
- GI50 ([9]; A549): 3.24 µM
- IC50 ([9]; A549): 4.47 µM
- activity at 10 µM ([9]; A549, 48 h, read-out: Growth Percentage): 19.5%
- CC50 ([9]; A549, read-out: LC50): 55 µM
- IC (TGI) ([9]; A549, read-out: TGI): 12 µM
- GI50 [10]: 2.51 µM
- IC50 [10]: 4.27 µM
- activity at 10 µM [10, 15]: 8.19%
- CC50 ([10]; read-out: LC50): > 100 µM
- IC (TGI) ([10]; read-out: TGI): 5.75 µM
- GI50 ([11]; HOP-92): 3.89 µM
- IC50 ([11]; HOP-92): 22.4 µM
- CC50 ([11]; HOP-92, read-out: LC50): 44.7 µM
- IC (TGI) ([11]; HOP-92, read-out: TGI): 16.6 µM
- GI50 ([12]; CAKI-1): 10.5 µM
- IC50 ([12]; CAKI-1): 20.4 µM
- activity at 10 µM ([12]; CAKI-1, 48 h, read-out: Growth Percentage): -56.5%
- CC50 ([12]; CAKI-1, read-out: LC50): 51.3 µM
- IC (TGI) ([12]; CAKI-1, read-out: TGI): 22.9 µM
- GI50 [13]: 17.4 µM
- IC50 [13]: 67.6 µM
- activity at 10 µM [13, 15]: 24.5%
- CC50 ([13]; read-out: LC50): > 100 µM
- IC (TGI) ([13]; read-out: TGI): 52.5 µM
- GI50 ([14]; PC-3): 4.07 µM
- IC50 ([14]; PC-3): 8.13 µM
- activity at 10 µM ([14]; PC-3, 48 h, read-out: Growth Percentage): 8.43%
- CC50 ([14]; PC-3, read-out: LC50): 56.2 µM
- IC (TGI) ([14]; PC-3, read-out: TGI): 17.8 µM

From PMC11435058, “Synthesis of New Thiazole-Privileged Chalcones as Tubulin Polymerization Inhibitors with Potential Anticancer Activities” (Pharmaceuticals, 2024)
